{
  "source": "patent US20240010681A1",
  "about": "“PEPTIDES AND METHODS OF USE” (REALTA LIFE SCIENCES, INC., priority 2020, published 2024)",
  "test": "Pharmacokinetics, metabolite profiles and excretion of [14C]-PIC1-dPEG24 after single IV dose",
  "assay_type": "in vivo, rat",
  "description": "[…]. The six rats in Group 3 and Group 4 were further divided into two subgroups for serial blood collections at 10, 30 min and 1, 2, 3, 4, 6, 8, 24, and 48 hr. Blood was pooled by equal volume across animals at each time point, and aliquots (˜200 μL) of pooled blood were removed at each time point for total radioactivity, and the rest of blood samples were centrifuged to obtain plasma. Bile, urine, feces, and cage wash samples were collected up to 72 hr in bile duct cannulated (BDC) rats, and up to 168 hr in intact rats, and terminal blood samples were collected at the end of study (72 hr or 168 hr post-doses). The total radioactivity concentrations in the excreta, blood and plasma were determined by homogenization, combustion and/or liquid scintillation counting (LSC). The metabolite profiles and structure characterization were conducted in pooled plasma, urine, and bile samples using LC-UV/MS as well as radioactive detection. […].\nThe radioactive profiles of rat plasma samples for the low dose group and the high dose group were qualitatively similar.",
  "data": [
    {"smiles": "CC[C@H](C)[C@H](N)C(=O)N[C@@H](C)C(=O)N[C@@H](CC(C)C)C(=O)N[C@H](C(=O)N[C@@H](CC(C)C)C(=O)N[C@@H](CCC(=O)O)C(=O)N1CCC[C@H]1C(=O)N[C@H](C(=O)N[C@@H](CS)C(=O)N[C@@H](CS)C(=O)N[C@@H](CCC(N)=O)C(=O)N[C@@H](CCC(=O)O)C(=O)N[C@@H](CCCNC(=N)N)C(=O)N[C@@H](C)C(=O)N[C@@H](C)C(=O)NCCOCCOCCOCCOCCOCCOCCOCCOCCOCCOCCOCCOCCOCCOCCOCCOCCOCCOCCOCCOCCOCCOCCOCCOCCC(=O)O)[C@@H](C)CC)[C@@H](C)CC", "note": "[[^14C]-PIC1-dPEG24]", "values": [
      {"measurement": "unchanged parent compound in urine", "setting": "20 and 200 mg/kg dose", "value": "not detectable"},
      {"measurement": "unchanged parent compound and M2768 together in pooled plasma", "setting": "8 hr time point, small radioactive peak at 30 min post-IV-injection", "value": "still detectable"},
      {"measurement": "route of elimination of related radioactivity", "setting": "male BDC and intact rats, single IV 20 and 200 mg/kg", "value": "urinary excretion was major route of elimination"},
      {"measurement": "half-life", "setting": "rat, in vivo, intact rats, IV 20 and 200 mg/kg, read-out: plasma elimination half-lives for total radioactivity", "value": "≥ 40", "unit": "h"},
      {"measurement": "dosed radioactivity recovered within 24 hr post-dose", "setting": "single IV 20 or 200 mg/kg, mainly via urine", "value": "> 70 % of the dose"}
    ]}
  ]
}
